Data on 4 compounds can be found in patent US20180325814A1, “CONFECTIONERY FOR ORAL CARE APPLICATIONS” (The Hershey Company, priority 2017, published 2018).

A short description of assay [1]: in vitro study of arginine, CGP and HPC, enamel microhardness (FIG. 3). Set-up: species or system bovine. The following applies: after 10 days of exposure. The source says:
The in vitro study used bovine tooth enamel slabs which were polished and then subjected to an initial tooth softening step using lactic acid. An initial microhardness measurement was then made on each enamel specimen. The enamel specimens were subjected to four pH cycles per day, each cycle comprising a thirty-minute acid demineralization step followed by a twenty-minute lozenge remineralization step. Final microhardness measurements were taken on each specimen after 10 days of treatment and after 20 days of treatment. A fluoride dentifrice and a no-lozenge control sample were analyzed according to the same procedure for comparison purposes.
The latter two alternatives, chitosan and biofilm dispersing agents, were ruled out because they lacked approval for food use. Arginine was selected as the leading candidate for further evaluation. A new in vitro study was undertaken to evaluate arginine alone and in combination with CGP and HPC. CGP alone, CGP with HPC and fluoride were also investigated. The testing procedure was substantially the same as the in vitro study for calcium salts.
The height of each bar represents the change in the KHN as calculated by ΔKHN=KHN10-DAY−KHNINITIAL.

Assay [2] can be described thus: sugar alcohol assessment of salivary flow and time in mouth (FIG. 4). It is filed as in vivo. As to conditions: test subjects using a mint vs at rest with no mint; preliminary results. The source says:
In addition to evaluating additives for their ability to provide tooth strengthening properties, the inventors also investigated a number of sugar alcohols, individually and in combination, for their ability to increase salivary flow and TIM. The investigation included dual layer formulations as well as compressed tablets. Greater salivary flow is desirable to create calcium delivery and increased TIM provides greater delivery time for active ingredients to have an effect. In FIG. 4, the blue bars represent the average salivary flow difference (in ml/min) between test subjects at rest with no mint versus test subjects using a mint. The green bars represent the average dissolution time in seconds/1000.

`N=C(N)NCCC[C@H](N)C(=O)O` [Arginine]: the “change in enamel microhardness (ΔKHN)” value in assay [1] is reported as “did not produce significant results”.
Still for that read-out and setting: to calcium glycerophosphate [CGP] belongs “increase in microhardness that was very similar to the sample for fluoride”.
In the case of `OC[C@@H](O)[C@@H](O)CO` [erythritol], the “average salivary flow difference” value in assay [2] is “stimulated salivary flow”.
On to `Cl.N=C(N)NCCC[C@H](N)C(=O)O` [arginine HCl], for which the “change in enamel microhardness (ΔKHN)” value in assay [1] is “did not produce significant results”.
